Source: the supplement of paper PMC10307832

Key:
Test in all cases: relative viability (nuclei count vs DMSO), 5 days (fraction); higher = more cells survive
ABC-1 = tested on: ABC-1
In short: (§1)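 Relative viability divides the nuclei count in treated wells by that in vehicle wells. Lung cancer cell lines were seeded in 1536-well plates, dosed by pin tool the next day, and fixed and stained after 5 days in one step with final 0.05% Triton X-100, 1% formaldehyde and 1 ug/ml Hoechst. Dosing was a single drug or a fixed anchor-drug dose plus five library-drug doses (not always all listed) in √10 steps, and values are medians of duplicate plates imaged at 4×.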

COR-L23 = tested on: COR-L23
In short: as §1

EPLC-272H = tested on: EPLC-272H
In short: as §1

HARA = tested on: HARA
In short: as §1

HCC-15 = tested on: HCC-15
In short: as §1

HCC-44 = tested on: HCC-44
In short: as §1

HOP-62 = tested on: HOP-62
In short: as §1

LC-2-ad = tested on: LC-2-ad
In short: as §1

LU99A = tested on: LU99A
In short: as §1

NCI-H1355 = tested on: NCI-H1355
In short: as §1

NCI-H1651 = tested on: NCI-H1651
In short: as §1

NCI-H1915 = tested on: NCI-H1915
In short: as §1

NCI-H1993 = tested on: NCI-H1993
In short: as §1

NCI-H2023 = tested on: NCI-H2023
In short: as §1

NCI-H2085 = tested on: NCI-H2085
In short: as §1

NCI-H2126 = tested on: NCI-H2126
In short: as §1

NCI-H2347 = tested on: NCI-H2347
In short: as §1

NCI-H650 = tested on: NCI-H650
In short: as §1

NCI-H838 = tested on: NCI-H838
In short: as §1

PC-14 = tested on: PC-14
In short: as §1

SW 1573 = tested on: SW 1573
In short: as §1

UMC-11 = tested on: UMC-11
In short: as §1

## Nc1ccn([C@@H]2O[C@H](CO)[C@@H](O)[C@@H]2O)c(=O)n1 [Cytarabine] + C[C@@H](Oc1cc(-c2cnn(C3CCNCC3)c2)cnc1N)c1c(Cl)ccc(F)c1Cl [Crizotinib] (partner 1 µM)
ABC-1; first compound 0.005 µM
  relative viability: 0.871
ABC-1; first compound 0.01581 µM
  relative viability: 0.821
ABC-1; first compound 0.05 µM
  relative viability: 0.925
ABC-1; first compound 0.1581 µM
  relative viability: 0.717
ABC-1; first compound 0.5 µM
  relative viability: 0.462
COR-L23; first compound 0.005 µM
  relative viability: 0.578
COR-L23; first compound 0.01581 µM
  relative viability: 0.631
COR-L23; first compound 0.05 µM
  relative viability: 0.405
COR-L23; first compound 0.1581 µM
  relative viability: 0.166
COR-L23; first compound 0.5 µM
  relative viability: 0.122
EPLC-272H; first compound 0.005 µM
  relative viability: 0.667
EPLC-272H; first compound 0.01581 µM
  relative viability: 0.379
EPLC-272H; first compound 0.05 µM
  relative viability: 0.577
EPLC-272H; first compound 0.1581 µM
  relative viability: 0.326
EPLC-272H; first compound 0.5 µM
  relative viability: 0.368
HARA; first compound 0.005 µM
  relative viability: 1.01
HARA; first compound 0.01581 µM
  relative viability: 0.682
HARA; first compound 0.05 µM
  relative viability: 0.333
HARA; first compound 0.1581 µM
  relative viability: 0.223
HARA; first compound 0.5 µM
  relative viability: 0.169
HCC-15; first compound 0.005 µM
  relative viability: 0.765
HCC-15; first compound 0.01581 µM
  relative viability: 0.895
HCC-15; first compound 0.05 µM
  relative viability: 0.84
HCC-15; first compound 0.1581 µM
  relative viability: 0.67
HCC-15; first compound 0.5 µM
  relative viability: 0.591
HCC-44; first compound 0.005 µM
  relative viability: 0.776
HCC-44; first compound 0.01581 µM
  relative viability: 0.831
HCC-44; first compound 0.05 µM
  relative viability: 0.626
HCC-44; first compound 0.1581 µM
  relative viability: 0.383
HCC-44; first compound 0.5 µM
  relative viability: 0.378
HOP-62; first compound 0.005 µM
  relative viability: 0.766
HOP-62; first compound 0.01581 µM
  relative viability: 0.49
HOP-62; first compound 0.05 µM
  relative viability: 0.379
HOP-62; first compound 0.1581 µM
  relative viability: 0.0643
HOP-62; first compound 0.5 µM
  relative viability: 0.0736
LC-2-ad; first compound 0.005 µM
  relative viability: 0.416
LC-2-ad; first compound 0.01581 µM
  relative viability: 0.544
LC-2-ad; first compound 0.05 µM
  relative viability: 0.453
LC-2-ad; first compound 0.1581 µM
  relative viability: 0.341
LC-2-ad; first compound 0.5 µM
  relative viability: 0.295
LU99A; first compound 0.005 µM
  relative viability: 0.62
LU99A; first compound 0.01581 µM
  relative viability: 0.549
LU99A; first compound 0.05 µM
  relative viability: 0.517
LU99A; first compound 0.1581 µM
  relative viability: 0.527
LU99A; first compound 0.5 µM
  relative viability: 0.498
NCI-H1355; first compound 0.005 µM
  relative viability: 0.998
NCI-H1355; first compound 0.01581 µM
  relative viability: 1.03
NCI-H1355; first compound 0.05 µM
  relative viability: 0.973
NCI-H1355; first compound 0.1581 µM
  relative viability: 0.46
NCI-H1355; first compound 0.5 µM
  relative viability: 0.399
NCI-H1651; first compound 0.005 µM
  relative viability: 0.869
NCI-H1651; first compound 0.01581 µM
  relative viability: 0.904
NCI-H1651; first compound 0.05 µM
  relative viability: 0.834
NCI-H1651; first compound 0.1581 µM
  relative viability: 0.584
NCI-H1651; first compound 0.5 µM
  relative viability: 0.549
NCI-H1915; first compound 0.005 µM
  relative viability: 0.888
NCI-H1915; first compound 0.01581 µM
  relative viability: 0.882
NCI-H1915; first compound 0.05 µM
  relative viability: 0.686
NCI-H1915; first compound 0.1581 µM
  relative viability: 0.393
NCI-H1915; first compound 0.5 µM
  relative viability: 0.333
NCI-H1993; first compound 0.005 µM
  relative viability: 0.92
NCI-H1993; first compound 0.01581 µM
  relative viability: 0.785
NCI-H1993; first compound 0.05 µM
  relative viability: 0.845
NCI-H1993; first compound 0.1581 µM
  relative viability: 0.614
NCI-H1993; first compound 0.5 µM
  relative viability: 0.566
NCI-H2023; first compound 0.005 µM
  relative viability: 0.366
NCI-H2023; first compound 0.01581 µM
  relative viability: 0.368
NCI-H2023; first compound 0.05 µM
  relative viability: 0.113
NCI-H2023; first compound 0.1581 µM
  relative viability: 0.101
NCI-H2023; first compound 0.5 µM
  relative viability: 0.0749
NCI-H2085; first compound 0.005 µM
  relative viability: 0.718
NCI-H2085; first compound 0.01581 µM
  relative viability: 0.883
NCI-H2085; first compound 0.05 µM
  relative viability: 0.799
NCI-H2085; first compound 0.1581 µM
  relative viability: 0.552
NCI-H2085; first compound 0.5 µM
  relative viability: 0.621
NCI-H2126; first compound 0.005 µM
  relative viability: 0.916
NCI-H2126; first compound 0.01581 µM
  relative viability: 1.01
NCI-H2126; first compound 0.05 µM
  relative viability: 0.96
NCI-H2126; first compound 0.1581 µM
  relative viability: 0.78
NCI-H2126; first compound 0.5 µM
  relative viability: 0.656
NCI-H2347; first compound 0.005 µM
  relative viability: 0.827
NCI-H2347; first compound 0.01581 µM
  relative viability: 0.719
NCI-H2347; first compound 0.05 µM
  relative viability: 0.573
NCI-H2347; first compound 0.1581 µM
  relative viability: 0.642
NCI-H2347; first compound 0.5 µM
  relative viability: 0.467
NCI-H650; first compound 0.005 µM
  relative viability: 0.664
NCI-H650; first compound 0.01581 µM
  relative viability: 0.519
NCI-H650; first compound 0.05 µM
  relative viability: 0.353
NCI-H650; first compound 0.1581 µM
  relative viability: 0.259
NCI-H650; first compound 0.5 µM
  relative viability: 0.177
NCI-H838; first compound 0.005 µM
  relative viability: 0.715
NCI-H838; first compound 0.01581 µM
  relative viability: 0.877
NCI-H838; first compound 0.05 µM
  relative viability: 0.699
NCI-H838; first compound 0.1581 µM
  relative viability: 0.339
NCI-H838; first compound 0.5 µM
  relative viability: 0.224
PC-14; first compound 0.005 µM
  relative viability: 0.805
PC-14; first compound 0.01581 µM
  relative viability: 0.84
PC-14; first compound 0.05 µM
  relative viability: 0.778
PC-14; first compound 0.1581 µM
  relative viability: 0.439
PC-14; first compound 0.5 µM
  relative viability: 0.2
SW 1573; first compound 0.005 µM
  relative viability: 0.83
SW 1573; first compound 0.01581 µM
  relative viability: 0.868
SW 1573; first compound 0.05 µM
  relative viability: 0.864
SW 1573; first compound 0.1581 µM
  relative viability: 0.412
SW 1573; first compound 0.5 µM
  relative viability: 0.179
UMC-11; first compound 0.005 µM
  relative viability: 0.454
UMC-11; first compound 0.01581 µM
  relative viability: 0.52
UMC-11; first compound 0.05 µM
  relative viability: 0.336
UMC-11; first compound 0.1581 µM
  relative viability: 0.267
UMC-11; first compound 0.5 µM
  relative viability: 0.205
